Measured values from PMC8718748, “Molecular Dissection of the Primase and Polymerase Activities of Deep-Sea Phage NrS-1 Primase-Polymerase” (Frontiers in Microbiology, 2021).

Experiments:
N300 [1] = target: T1, N300 (Nitratiruptor phage NrS-1, UniProt M5AAG8); experiment: X-ray crystal structure of complex (SeMet, SAD, […] A); format: binding; conditions: Ca2+ (200 mM calcium acetate in crystals), pH 7.0; active site, 3'-site nucleotide
T1 construct: gene 28; N-terminal 300 residues (Prim/Pol domain + helix bundle domain) of NrSPol; pET28b, 6xHis with TEV site, tag cut for crystals (SeMet for ddCTP crystal); E. coli

N300 [2] = target: T1, N300; experiment: X-ray crystal structure of complex (native, […] A); format: binding; conditions: Mg2+; crystallised with ddCTP and ssDNA, pH 4.5; active site

T1 sequence (M5AAG8 1-300): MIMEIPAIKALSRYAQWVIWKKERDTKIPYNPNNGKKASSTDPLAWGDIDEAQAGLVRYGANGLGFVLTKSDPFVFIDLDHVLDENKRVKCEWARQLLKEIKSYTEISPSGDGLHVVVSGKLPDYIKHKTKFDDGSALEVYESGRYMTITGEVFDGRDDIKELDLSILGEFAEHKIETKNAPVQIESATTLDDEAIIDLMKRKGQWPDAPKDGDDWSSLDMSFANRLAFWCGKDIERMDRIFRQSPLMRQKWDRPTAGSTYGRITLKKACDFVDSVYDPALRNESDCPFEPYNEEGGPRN

| Compound | X-ray crystal structure of complex (SeMet, SAD, 2.24 A) (N300 [1]) | X-ray crystal structure of complex (native, 1.86 A) (N300 [2]) |
| --- | --- | --- |
| Nc1ccn([C@H]2CC[C@@H](COP(=O)(O)OP(=O)(O)OP(=O)(O)O)O2)c(=O)n1 [ddCTP] | we determined the crystal structures of N300 in complex with ddCTP | – |
| O=P(O)(O)OP(=O)(O)O [pyrophosphate] | – | a pyrophosphate (PPi) occupies the active site instead of ddCTP |
